Test results from paper PMC10102027, “Helquat dyes targeting G-quadruplexes as a new class of anti-HIV-1 inhibitors” (Scientific Reports, 2023).
Entries after “also recorded” stand apart in the source; their conditions may differ.

How the values were obtained:
c-myc G-quadruplex = assay: Light-up experiment, c-myc; assay type: binding; settings: 4 μM compound, excitation 280 nm
Description: (§1) The intensity of fluorescence measured after the incubation with both oligonucleotides incompetent of G-quadruplex formation was almost identical, with the maximum intensity 2.5 times lower than that of the G-quadruplex-forming oligonucleotide (wt). […] To examine the specificity of ligand 12, we have repeated the light-up experiment with single-stranded G4 LTR in parallel with double-stranded G4 LTR and additional G-quadruplexes (c-myc, c-kit1 and h-telo). […] To further evaluate the specificity of ligand 12, we performed the light-up titration experiment incubating compound 12 with serial dilutions (1:1) of oligonucleotides (ss G4 LTR wild type, G4 c-myc and c-kit1) spanning final concentrations 2 to 0.002 μM (Supplement Fig. S3B). […] This can indicate a slight preference of ligand 12 for ss G4 LTR than for c-myc at lower oligonucleotide concentrations.
(§2) The selected compounds were incubated in the presence of the G4 LTR wild-type (wt) oligonucleotide, the G4 LTR M4 + M5 oligonucleotide containing mutations that disabled G-quadruplex formation (described previously[41]), and the G4 LTR scrambled-sequence oligonucleotide, or the buffer-only control. The compounds were tested at a compound:oligonucleotide ratio of 2:1 (4 μM compounds and 2 μM oligonucleotide) in PBS in a 384-well plate. Emission spectra were measured after excitation at 280 nm in a Tecan Infinite M1000 plate reader. […]

c-kit1 G-quadruplex = assay: Light-up experiment, c-kit1; assay type: binding; settings: 4 μM compound, excitation 280 nm
Description: as §1, §2

h-telo G-quadruplex = assay: Light-up experiment, h-telo; assay type: binding; settings: 4 μM compound, excitation 280 nm
Description: as §1, §2

ds G4 LTR = assay: Light-up experiment, ds G4 LTR; assay type: binding, HIV-1; settings: 4 μM compound, excitation 280 nm
Description: as §1, §2

[1] = system: HIV-1 LTR G-quadruplex template (G4 LTR Stop); assay: Taq polymerase stop assay; assay type: biochemical; settings: for Fold change, all regions (A, B and C) together: normalized against control; for Fold change: A (G-patch 6′) / Fold change: B (G-patch 6) / Fold change: C (G-patch 5): 2.5 µM, pixel intensity normalized against negative control; for G-quadruplex stabilization / stop band pattern: Taq polymerase pausing at G-patches, 1-5 μM
Description: To address specifically the positions in the HIV-1 promoter region that are affected by the binding of G4-stabilizing agents, we performed a Taq polymerase stop assay. The wild-type LTR oligonucleotide was extended at the […] to include a primer-annealing region and used as a template for a single-cycle Taq polymerase reaction. The elongation of the radioactively labelled primer was performed at 45 °C in the presence or absence of the tested compounds and controls.
A Taq polymerase stop assay was carried out as described in a previous study. Briefly, the primer (G4 LTR primer, Supplementary Table S1) was 5′-end labelled with [γ-^32P]ATP using T4 polynucleotide kinase at 37 °C for 30 min. The T4 polynucleotide kinase was then inactivated by incubation at 65 °C for 5 min. The radioactively labelled primer was column-purified and stored at − 20 °C for further use. The labelled primer (1.7 pmol) was annealed to the template (2.1 pmol) in the LiCaco buffer and extended with the Go Taq DNA polymerase (2U/reaction, Promega) at 45 °C for 45 min. Samples were incubated with G-quadruplex-ligands at 45 °C for 45 min before DNA polymerase addition. The reactions were stopped by a denaturing solution (80% formamide, 10% glycerol, 0.025% xylen cyanol, 0.025% bromphenol blue and 10 mM EDTA pH 8); extension products were separated on 15% denaturing gel and visualized by phosphorimaging. The pixel intensity of bands was calculated using 1D gel analysis in ImageQuant TL software version 8.1 (GE HealthCare) after automatic background subtraction by Rolling Ball method.

NL4-3 HIV-1 = assay: Modified time-of-addition assay; assay type: cell-based; settings: 10 μM, MT-4 cells, RT activity 31 h post-infection; for activity by time of addition: added 2-24 h post-infection
Description: There are indications that G4s in the HIV-1 promoter might play roles in both RNA and DNA forms. G4s present in the LTR region of HIV-1 genomic RNA could influence reverse transcription. By contrast, G4s in the promoter region of the integrated HIV-1 provirus might regulate the transcription of viral genome and of viral mRNAs and thus the expression of viral proteins and the production of new virions - both the later stages of the HIV-1 life cycle. A modified time-of-addition assay was performed with an emphasis on the later stages of the HIV-1 life cycle, such as reverse transcription, integration and provirus expression. The tested compounds were added at several time points, but the initial time point was 2 h post-infection to eliminate their virucidal/adsorption/entry effects. Several inhibitors of the individual steps of the HIV-1 life cycle were used as controls to resolve the post-entry steps of the HIV-1 life cycle. MT-4 cells were infected with NL4-3 HIV-1 and the infection was allowed to proceed for 1 h. Subsequently, the unbound virions were washed out, and the cells were resuspended in fresh media. The compounds were first added 2 h after the infection. The culture media were harvested 31 h later and the number of released virions was monitored through the activity of reverse transcriptase in the culture media (Fig. 4).
MT-4 cells were infected with NL4-3 HIV-1 at a MOI of 1. After 1 h, the cells were washed, seeded (100,000 cells/well) and incubated at 37 °C. […] HIV-1 production was determined 31 h post-infection by measuring RT activity in the supernatant.
RT assay. The reverse transcriptase (RT) activity in a cell-free supernatant was assessed by an α-32P RT assay. Briefly, the RT activity in the culture medium, which corresponded to the amount of HIV-1, was used to produce a DNA copy of an RNA template by extending a complementary oligo dT DNA primer with radiolabelled nucleotides. A reaction mixture containing 50 mM Tris-HCl pH 7.8, 75 mM KCl, 2 mM DTT, 5 mM MgCl2 and 0.5% NP-40 (all Sigma-Aldrich), 5 µg per ml of poly (rA)-poly (dT) (The Midlan Certified Reagent Company) with 1 µl 10-mCi/ml [α-32P]dTTP (American Radiolabeled Chemicals) per ml, and the tested sample was incubated at 37°C for two hours, after which 10 µl were spotted on DEAE blotting paper (PerkinElmer) and air-dried. After five washes with SSC buffer (0.15 M NaCl, 0.015 M sodium citrate) and three additional washes with 85% ethanol, the blotting paper was exposed to Phosphoscreen overnight, which was scanned on a Typhoon 9410 Phosphorimager instrument (GE Healthcare). The intensity of the dots was analysed by the ImageQuant software (GE Healthcare).

SMILES	fluorescence light-up (c-myc G-quadruplex)	fluorescence light-up (c-kit1 G-quadruplex)	fluorescence light-up (h-telo G-quadruplex)	fluorescence light-up (ds G4 LTR)	Fold change, all regions (A, B and C) together ([1]; 1 μM)	Fold change, all regions (A, B and C) together ([1]; 2.5 μM)	Fold change: A (G-patch 6′) [1]	Fold change: B (G-patch 6) [1]	Fold change: C (G-patch 5) [1]	Fold change, all regions (A, B and C) together ([1]; 5 μM)	G-quadruplex stabilization / stop band pattern [1]	latest time of administration post-infection with retained antiviral activity (NL4-3 HIV-1)	activity by time of addition (NL4-3 HIV-1)
Cn1cc(/C=C/c2cc(/C=C/c3cn(C)c4ccccc34)[n+]3c(c2)-c2c(ccc4c2-c2cccc[n+]2CCC4)CCC3)c2ccccc21 [Compound 12]	strong fluorescence	strong fluorescence	low fluorescence	very weak fluorescence	1.4	1.9	1.9	2.1	1.5	1.8	exhibit their stabilization effect even at 1 μM concentration; also recorded: stop bands only in G-patch 6	up to 8 h	preserved their activity at later time points
C(=C\c1cc(/C=C/c2ccc3c(c2)CCO3)[n+]2c(c1)-c1c(ccc3c1-c1cccc[n+]1CCC3)CCC2)/c1ccc2c(c1)CCO2 [Compound 14]	–	–	–	–	1.2	1.7	1.4	2.0	1.5	1.8	stop bands only in G-patch 6	up to 8 h	preserved their activity at later time points
COc1ccc2ccccc2c1/C=C/c1cc[n+]2c(c1)-c1c(c(C)c(C)c3c1-c1cc(/C=C/c4c(OC)ccc5ccccc45)cc[n+]1CC3)CC2 [Compound 15]	–	–	–	–	1.6	2.4	2.8	2.5	1.8	2.5	strong stop bands also in G-patch 6′; also recorded: exhibit their stabilization effect even at 1 μM concentration	≤ 5 h	mainly manifested when these compounds are administered before or early during reverse transcription
